What all share (assay type): in vivo
Assay [1] concerns barnyardgrass (Echinochloa crus-galli). The assay is described as follows: Test A postemergence. The conditions noted are these: Echinochloa crus-galli, post-emergence, 240 h, 125 g ai/ha. The gist of the method: (§1)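 Seeded soil received test chemicals as a preemergence directed spray, and seedlings at one to two leaves, 2–10 cm tall, received them postemergence, in a non-phytotoxic, surfactant-containing solvent mixture. Pots were held in a greenhouse for approximately 10 d, then rated for injury from 0, no effect, to 100, complete control.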

In assay [2] the test system is wheat (Triticum aestivum). As to the kind of experiment: Test A postemergence. Particulars: Triticum aestivum, post-emergence, 240 h, 125 g ai/ha. The gist of the method: as §1
The subject of another assay is corn (Zea mays). The assay is described as follows: Test A postemergence. Particulars: Zea mays, post-emergence, 240 h, 125 g ai/ha; for Corn plant response rating (crop injury, 0 = no effect, 100 = complete kill) at 125 g/ha: Postemergence, visual injury after approximately 10 d, 0 to 100 scale where 0 is no effect and 100 is complete control. In a few lines: as §1

The subject of assay [3] is Galium (catchweed bedstraw, Galium aparine). The assay is described as follows: Test A postemergence. Particulars: Galium, post-emergence, 240 h, 125 g ai/ha. In a few lines: as §1
Assay [4] deals with ryegrass, Italian (Italian ryegrass, Lolium multiflorum). As to the kind of experiment: Test A postemergence. The conditions noted are these: Lolium multiflorum, post-emergence, 240 h, 125 g ai/ha. In a few lines:
as §1

For assay [5], the system named is Kochia (Kochia scoparia). As to the kind of experiment: Test A postemergence. Particulars: Bassia scoparia, post-emergence, 240 h, 125 g ai/ha. The gist of the method: as §1
The subject of assay [6] is ragweed (common ragweed, Ambrosia elatior). The assay is described as follows: Test A postemergence. Particulars: Ambrosia artemisiifolia, post-emergence, 240 h, 125 g ai/ha. In a few lines: as §1
In assay [7] the test system is pigweed (Amaranthus retroflexus). The assay is described as follows: Test A postemergence. Particulars: Amaranthus retroflexus, post-emergence, 240 h, 125 g ai/ha. The gist of the method: as §1
The test system of assay [8] is giant foxtail (Setaria faberii). As to the kind of experiment: Test A postemergence. The conditions noted are these: Setaria faberi, post-emergence, 240 h, 125 g ai/ha. In a few lines: as §1
For assay [9], the system named is barnyardgrass (Echinochloa crus-galli). The assay is described as follows: Test A preemergence. Particulars: Echinochloa crus-galli, pre-emergence, 240 h; for pest or weed control at 125 g/ha: 125 g ai/ha, 0 to 100 scale where 0 is no effect and 100 is complete control; for pest or weed control at 500 g/ha: 500 g ai/ha. In a few lines: as §1
The subject of assay [10] is ryegrass, Italian (Italian ryegrass, Lolium multiflorum). As to the kind of experiment: Test A preemergence. Particulars: Lolium multiflorum, pre-emergence, 240 h; for pest or weed control at 500 g/ha: 500 g ai/ha. The gist of the method:
as §1

Assay [11] concerns Kochia (Kochia scoparia). As to the kind of experiment: Test A preemergence. The conditions noted are these: Bassia scoparia, pre-emergence, 240 h; for pest or weed control at 125 g/ha: 125 g ai/ha, 0 to 100 scale where 0 is no effect and 100 is complete control; for pest or weed control at 500 g/ha: 500 g ai/ha. In a few lines:
as §1

Assay [12] has as its system ragweed (common ragweed, Ambrosia elatior). The assay is described as follows: Test A preemergence. The conditions noted are these: Ambrosia artemisiifolia, pre-emergence, 240 h; for pest or weed control at 500 g/ha: 500 g ai/ha. In a few lines: as §1
Assay [13] has as its system pigweed (Amaranthus retroflexus). The assay is described as follows: Test A preemergence. Particulars: Amaranthus retroflexus, pre-emergence, 240 h; for pest or weed control at 125 g/ha: 125 g ai/ha, 0 to 100 scale where 0 is no effect and 100 is complete control; for pest or weed control at 500 g/ha: 500 g ai/ha.
The test system of assay [14] is giant foxtail (Setaria faberii). As to the kind of experiment: Test A preemergence. Particulars: Setaria faberi, pre-emergence, 240 h; for pest or weed control at 125 g/ha: 125 g ai/ha, 0 to 100 scale where 0 is no effect and 100 is complete control; for pest or weed control at 500 g/ha: 500 g ai/ha. In a few lines:
as §1

Setting [15] is: preemergence, read-out: Barnyardgrass plant response rating.
Where [16] appears, read: preemergence, read-out: Kochia plant response rating.
Where [17] appears, read: preemergence, read-out: Pigweed plant response rating.
The mark [18] stands for this setting: preemergence, read-out: Foxtail, Giant plant response rating.
[19] abbreviates: Postemergence, visual injury after approximately 10 d, 0 to 100 scale where 0 is no effect and 100 is complete control, read-out: Plant response rating, Barnyardgrass.
Where [20] appears, read: Postemergence, visual injury after approximately 10 d, 0 to 100 scale where 0 is no effect and 100 is complete control, read-out: Plant response rating, Wheat.
Where [21] appears, read: Postemergence, visual injury after approximately 10 d, 0 to 100 scale where 0 is no effect and 100 is complete control, read-out: Plant response rating, Galium.
The mark [22] stands for this setting: Postemergence, visual injury after approximately 10 d, 0 to 100 scale where 0 is no effect and 100 is complete control, read-out: Plant response rating, Ryegrass, Italian.
[23] abbreviates: Postemergence, visual injury after approximately 10 d, 0 to 100 scale where 0 is no effect and 100 is complete control, read-out: Plant response rating, Kochia.
The mark [24] stands for this setting: Postemergence, visual injury after approximately 10 d, 0 to 100 scale where 0 is no effect and 100 is complete control, read-out: Plant response rating, Ragweed.
Setting [25] is: Postemergence, visual injury after approximately 10 d, 0 to 100 scale where 0 is no effect and 100 is complete control, read-out: Plant response rating, Pigweed.
Setting [26] is: Postemergence, visual injury after approximately 10 d, 0 to 100 scale where 0 is no effect and 100 is complete control, read-out: Plant response rating, Foxtail, Giant.
Where [27] appears, read: preemergence, visual injury rating about 10 d after treatment, 0 to 100 scale (0 no effect, 100 complete control), read-out: Barnyardgrass plant response rating.
The mark [28] stands for this setting: preemergence, visual injury rating about 10 d after treatment, 0 to 100 scale (0 no effect, 100 complete control), read-out: Ryegrass, Italian plant response rating.
Where [29] appears, read: preemergence, visual injury rating about 10 d after treatment, 0 to 100 scale (0 no effect, 100 complete control), read-out: Kochia plant response rating.
Where [30] appears, read: preemergence, visual injury rating about 10 d after treatment, 0 to 100 scale (0 no effect, 100 complete control), read-out: Ragweed plant response rating.
Where [31] appears, read: preemergence, visual injury rating about 10 d after treatment, 0 to 100 scale (0 no effect, 100 complete control), read-out: Pigweed plant response rating.
[32] abbreviates: preemergence, visual injury rating about 10 d after treatment, 0 to 100 scale (0 no effect, 100 complete control), read-out: Foxtail, Giant plant response rating.

Like-named read-outs stand apart in the source and are kept apart here.

For `CCOc1ccc([C@H]2CNC(=O)[C@@H]2C(=O)Nc2ccc(F)cc2F)cc1` [Compound 908], the pest or weed control at 125 g/ha was found to be 20% in assay [1] (postemergence, visual injury rating after approximately 10 d, read-out: Barnyardgrass plant response rating (0 to 100 scale, 0 no effect, 100 complete control)); 0% in assay [3] (postemergence, visual injury rating after approximately 10 d, read-out: Galium plant response rating (0 to 100 scale, 0 no effect, 100 complete control)); 0% in assay [4] (postemergence, visual injury rating after approximately 10 d, read-out: Ryegrass, Italian plant response rating (0 to 100 scale, 0 no effect, 100 complete control)); 0% in the assay with Kochia (Kochia scoparia) [5] (postemergence, visual injury rating after approximately 10 d, read-out: Kochia plant response rating (0 to 100 scale, 0 no effect, 100 complete control)); 0% in [6] (postemergence, visual injury rating after approximately 10 d, read-out: Ragweed plant response rating (0 to 100 scale, 0 no effect, 100 complete control)); 0% in assay [7] (postemergence, visual injury rating after approximately 10 d, read-out: Pigweed plant response rating (0 to 100 scale, 0 no effect, 100 complete control)). For the same compound, the pest or weed control at 125 g/ha is 30% in [8] (postemergence, visual injury rating after approximately 10 d, read-out: Foxtail, Giant plant response rating (0 to 100 scale, 0 no effect, 100 complete control)); 0% in [9] (setting [15]); 0% in assay [10] (125 g ai/ha, preemergence, 0 to 100 scale where 0 is no effect and 100 is complete control, read-out: Ryegrass, Italian plant response rating); 0% with Kochia (Kochia scoparia) [11] (setting [16]); 0% in assay [12] (125 g ai/ha, preemergence, 0 to 100 scale where 0 is no effect and 100 is complete control, read-out: Ragweed plant response rating); 0% in assay [13] (setting [17]). In addition, the pest or weed control at 125 g/ha in assay [14] (setting [18]) was 30%. Moreover, the plant injury at 125 g/ha in assay [2] (postemergence, visual injury rating after approximately 10 d, read-out: Wheat plant response rating (0 to 100 scale, 0 no effect, 100 complete control)) came to 0%; in the assay on corn (Zea mays) (postemergence, visual injury rating after approximately 10 d, read-out: Corn plant response rating (0 to 100 scale, 0 no effect, 100 complete control)) it was 0%. The pest or weed control at 500 g/ha in assay [9] (Preemergence, visual injury vs untreated controls after approximately 10 d, read-out: Barnyardgrass plant response rating (0 to 100 scale where 0 is no effect and 100 is complete control)) amounted to 50%; in assay [10] (Preemergence, visual injury vs untreated controls after approximately 10 d, read-out: Ryegrass, Italian plant response rating (0 to 100 scale where 0 is no effect and 100 is complete control)) it was 0%; with Kochia (Kochia scoparia) [11] (Preemergence, visual injury vs untreated controls after approximately 10 d, read-out: Kochia plant response rating (0 to 100 scale where 0 is no effect and 100 is complete control)), 0%; in assay [12] (Preemergence, visual injury vs untreated controls after approximately 10 d, read-out: Ragweed plant response rating (0 to 100 scale where 0 is no effect and 100 is complete control)), 0%; in [13] (Preemergence, visual injury vs untreated controls after approximately 10 d, read-out: Pigweed plant response rating (0 to 100 scale where 0 is no effect and 100 is complete control)), 0%; in assay [14] (Preemergence, visual injury vs untreated controls after approximately 10 d, read-out: Foxtail, Giant plant response rating (0 to 100 scale where 0 is no effect and 100 is complete control)) it was 80%.

As for `Cc1cccc(NC(=O)[C@H]2C(=O)N(C)C[C@@H]2c2ccc(C(F)(F)F)cc2)c1F` [Compound 939], the pest or weed control at 125 g/ha worked out at 80% in assay [1] (setting [19]); 20% in [3] (setting [21]); 0% in [4] (setting [22]); 0% in the assay on Kochia (Kochia scoparia) [5] (setting [23]); 0% in assay [6] (setting [24]); 0% in assay [7] (setting [25]). The pest or weed control at 125 g/ha in assay [8] (setting [26]) worked out at 90%; in assay [9] (setting [15]), 90%; in the assay with Kochia (Kochia scoparia) [11] (setting [16]), 30%; in [13] (setting [17]), 0%; in [14] (setting [18]), 90%. Also, the plant injury at 125 g/ha in [2] (setting [20]) came out at 20%. The Corn plant response rating (crop injury, 0 = no effect, 100 = complete kill) at 125 g/ha in the assay on corn (Zea mays) amounted to 0%. In addition, the pest or weed control at 500 g/ha in [9] (setting [27]) amounted to 90%; in assay [10] (setting [28]) it was 20%; with Kochia (Kochia scoparia) [11] (setting [29]), 60%; in assay [12] (setting [30]), 50%; in [13] (setting [31]), 0%; in assay [14] (setting [32]) it was 90%.

With `Cc1cc(F)ccc1NC(=O)[C@H]1C(=O)N(C)C[C@@H]1c1ccc(C(F)(F)F)cc1` [Compound 936], the pest or weed control at 125 g/ha in assay [1] (setting [19]) stood at 60%; in assay [3] (setting [21]), 40%; in assay [4] (setting [22]), 0%; in the assay on Kochia (Kochia scoparia) [5] (setting [23]), 20%; in assay [6] (setting [24]), 0%; in assay [7] (setting [25]), 20%. For the same compound, the pest or weed control at 125 g/ha in [8] (setting [26]) worked out at 90%; in [9] (setting [15]) it was 70%; with Kochia (Kochia scoparia) [11] (setting [16]), 60%; in assay [13] (setting [17]), 20%; in assay [14] (setting [18]), 90%. The plant injury at 125 g/ha in assay [2] (setting [20]) was found to be 30%. This compound also gave a Corn plant response rating (crop injury, 0 = no effect, 100 = complete kill) at 125 g/ha in the assay on corn (Zea mays) of 30%. Also, the pest or weed control at 500 g/ha in [9] (setting [27]) worked out at 90%; in assay [10] (setting [28]) it was 70%; in the assay on Kochia (Kochia scoparia) [11] (setting [29]) it was 90%; in [12] (setting [30]), 50%; in assay [13] (setting [31]), 80%; in [14] (setting [32]) it was 90%.
